Here are results for 20 molecules from ChEMBL document CHEMBL2331118, “A facile three-component [3+2]-cycloaddition for the regioselective synthesis of highly functionalised dispiropyrrolidines acting as antimycobacterial agents” (Bioorg Med Chem Lett, 2013).

Test [1] deals with Mycobacterium tuberculosis. As to the kind of experiment: Antitubercular activity against Mycobacterium tuberculosis H37Rv by microdilution alamar Blue broth assay. The class given is functional, organism-based. (In broth dilution the organism is exposed to a series of concentrations in liquid medium.)
The test system of test [2] is Vero. Description: Cytotoxicity against african green monkey Vero cells after 72 hrs by MTT assay. Format: cell-based. Conditions: Chlorocebus sabaeus. On the technique in general: Formazan colour is commonly taken as a measure of viable cells.
Test [3] deals with Mycobacterium tuberculosis. Description: Antitubercular activity against Mycobacterium tuberculosis H37Rv by BacTiter-Gl Microbial Cell Viability assay. Format: functional, organism-based.
The subject of test [4] is Mycobacterium tuberculosis. Description: Ratio of pyrimethamine EC50 to compound EC50 for Mycobacterium tuberculosis H37Rv by BacTiter-Gl Microbial Cell Viability assay. The class given is functional.
Test [5] deals with Mycobacterium tuberculosis. As to the kind of experiment: Ratio of cycloserine EC50 to compound EC50 for Mycobacterium tuberculosis H37Rv by BacTiter-Gl Microbial Cell Viability assay. Format: functional.
Test [6] has as its system Mycobacterium tuberculosis. As to the kind of experiment: Ratio of cycloserine EC90 to compound EC90 for Mycobacterium tuberculosis H37Rv by BacTiter-Gl Microbial Cell Viability assay. The class given is functional.
Test [7] concerns Mycobacterium tuberculosis. As to the kind of experiment: Ratio of pyrimethamine EC90 to compound EC90 for Mycobacterium tuberculosis H37Rv by BacTiter-Gl Microbial Cell Viability assay. Format: functional.
For test [8], the system named is Mycobacterium tuberculosis. As to the kind of experiment: Ratio of cycloserine MIC to compound MIC for Mycobacterium tuberculosis H37Rv by BacTiter-Gl Microbial Cell Viability assay. Format: functional.
Test [9] concerns Mycobacterium tuberculosis. As to the kind of experiment: Ratio of pyrimethamine MIC to compound MIC for Mycobacterium tuberculosis H37Rv by BacTiter-Gl Microbial Cell Viability assay. Format: functional.

In brackets after ≈: the same amount, converted by molar mass.

By EC50 is commonly meant the concentration at which the effect is half-maximal. The term EC90 denotes the concentration needed for an effect of 90%. For orientation: IC50 means the concentration that gives 50% inhibition. By MIC is commonly meant the lowest concentration that inhibits growth of the organism.

In test [1], `CN1C[C@H](c2ccc(C(F)(F)F)cc2)[C@]2(Cc3ccccc3C2=O)[C@]12C(=O)c1cccc3cccc2c13` came in with an EC50 of 23.4 µM and a concentration for an effect of 90% (EC90) of more than 100 µM. In test [2], the half-maximal inhibitory concentration (IC50) was more than 62.5 µg/mL. In test [3], this molecule displayed an EC50 of 3.21 µM, a 90% effect concentration (EC90) of 12.3 µM and an MIC of 50 µM (≈ 24.9 µg/mL).
In test [1], `CN1C[C@H](c2ccc(OC(F)(F)F)cc2)[C@]2(Cc3ccccc3C2=O)[C@]12C(=O)c1cccc3cccc2c13` yielded an EC50 of 36.6 µM and an EC90 of more than 100 µM. For the same molecule, the IC50 in test [2] is more than 62.5 µg/mL. Moreover, in test [3], a half-maximal response (EC50) required 8.51 µM, the EC90 worked out at 26.1 µM and the MIC stood at 50 µM (≈ 25.7 µg/mL).
As for `CN1C[C@H](c2cncc(-c3ccc(F)cc3)c2)[C@]2(Cc3ccccc3C2=O)[C@]12C(=O)c1cccc3cccc2c13`, the EC50 in test [1] is more than 100 µM; in test [3] it was 64.5 µM. For the same molecule, the EC90 in test [1] and in test [3] was more than 100 µM throughout. Also, the IC50 in test [2] is more than 62.5 µg/mL.
In test [1], `CN1C[C@H](c2ccc(C(=O)O)cc2)[C@]2(Cc3ccccc3C2=O)[C@]12C(=O)c1cccc3cccc2c13` had an EC50 of 69.2 µM, an EC90 of 99.7 µM and an MIC of 100 µM (≈ 47.4 µg/mL). Further, in test [2], the IC50 is more than 62.5 µg/mL. Further, in test [3], the half-maximal effective concentration (EC50) is 20.7 µM, the concentration for an effect of 90% (EC90) was more than 100 µM and inhibition of growth (MIC) required 100 µM (≈ 47.4 µg/mL).
In [1], `CN1C[C@H](c2cccc([N+](=O)[O-])c2)[C@]2(Cc3ccccc3C2=O)[C@]12C(=O)c1cccc3cccc2c13` gave an EC50 of 77.5 µM and an EC90 of more than 100 µM. In test [2], this molecule returned an IC50 of more than 62.5 µg/mL. In test [3], this molecule came in with an EC50 of 10.1 µM and an EC90 of more than 100 µM.
In test [1], `COc1ccc([C@H]2CN(C)[C@@]3(C(=O)c4cccc5cccc3c45)[C@@]23Cc2ccccc2C3=O)cc1` displayed an EC50 of 40.9 µM and an EC90 of more than 100 µM. The IC50 in test [2] was more than 62.5 µg/mL. In [3], this molecule registered an EC50 of 13.4 µM, a concentration for an effect of 90% (EC90) of 62.4 µM and an MIC of 100 µM (≈ 46 µg/mL).
Consider `CN1C[C@H](c2cccc3c2OCO3)[C@]2(Cc3ccccc3C2=O)[C@]12C(=O)c1cccc3cccc2c13`, for which, in test [1], the EC50 came to 63.8 µM and the EC90 was more than 100 µM. The IC50 in test [2] is more than 62.5 µg/mL. In test [3], this molecule came in with a 50% effective concentration (EC50) of 11.5 µM, an EC90 of more than 100 µM and an MIC of 100 µM (≈ 47.4 µg/mL).
Turning to `CN(C)c1ccc([C@H]2CN(C)[C@@]3(C(=O)c4cccc5cccc3c45)[C@@]23Cc2ccccc2C3=O)cc1`, in test [1], it took 56 µM to reach a half-maximal effect (EC50) and the EC90 was more than 100 µM. The IC50 in test [2] was more than 62.5 µg/mL. In [3], a half-maximal response (EC50) required 9.87 µM, the EC90 was found to be 55.3 µM and the MIC is 100 µM (≈ 47.3 µg/mL).
In test [1], `CN1C[C@H](c2ccc(N3CCOCC3)cc2)[C@]2(Cc3ccccc3C2=O)[C@]12C(=O)c1cccc3cccc2c13` had an EC50 of more than 100 µM and a concentration for an effect of 90% (EC90) of more than 100 µM. The same molecule gave an IC50 in test [2] of more than 62.5 µg/mL. In test [3], this molecule had a 50% effective concentration (EC50) of 18.9 µM and an EC90 of more than 100 µM.
For the molecule `COc1ccc(OC)c([C@H]2CN(C)[C@@]3(C(=O)c4cccc5cccc3c45)[C@@]23Cc2ccccc2C3=O)c1`, the 50% effective concentration (EC50) in test [1] turned out to be 68 µM; in [3] it was 9.56 µM. Further, the EC90 in test [1] and in test [3] was more than 100 µM each time. In [2], this molecule returned an IC50 of more than 62.5 µg/mL.
In test [1], `CN1C[C@H](c2ccc(N3CCCCC3)cc2)[C@]2(Cc3ccccc3C2=O)[C@]12C(=O)c1cccc3cccc2c13` yielded an EC50 of more than 100 µM and an EC90 of more than 100 µM. The IC50 in [2] is more than 62.5 µg/mL. In test [3], this molecule showed an EC50 of 17.8 µM and an EC90 of more than 100 µM.
In the case of `CN1C[C@H](c2ccccc2)[C@]2(Cc3ccccc3C2=O)[C@]12C(=O)c1cccc3cccc2c13`, in [1], the 50% effective concentration (EC50) is more than 100 µM and the EC90 is more than 100 µM. The half-inhibitory concentration (IC50) in test [2] is more than 62.5 µg/mL. In [3], this molecule yielded an EC50 of more than 100 µM and an EC90 of more than 100 µM.
In test [1], `CN1C[C@H](c2ccc(Cl)cc2)[C@]2(Cc3ccccc3C2=O)[C@]12C(=O)c1cccc3cccc2c13` showed an EC50 of 68.5 µM and an EC90 of more than 100 µM. This molecule also displayed an IC50 in [2] of more than 62.5 µg/mL. Moreover, in [3], the EC50 was 6.27 µM, the EC90 came to 29.6 µM and the minimum inhibitory concentration (MIC) was found to be 50 µM (≈ 23.2 µg/mL).
In the case of `CN1C[C@H](c2ccc(Br)cc2)[C@]2(Cc3ccccc3C2=O)[C@]12C(=O)c1cccc3cccc2c13`, the entries for the “Ratio EC50” value in test [4] and in test [5] were 11 and 10.7, respectively. The EC50 was 15.1 µM in test [1] and 2.2 µM in [3]. Further, the values for the 90% effect concentration (EC90) in [1] and in [3] were more than 100 µM and 10.8 µM, respectively. Besides, the IC50 in test [2] is more than 62.5 µg/mL. Besides, the Ratio is 2.45 in test [6], 4.3 in test [7], more than 8 in test [8] and more than 8 in test [9]. Further, in [3], the MIC stood at 12.5 µM (≈ 6.36 µg/mL).
In test [1], `NCC[C@H](O)C(=O)N[C@@H]1C[C@H](N)[C@@H](O[C@H]2O[C@H](CN)[C@@H](O)[C@H](O)[C@H]2O)[C@H](O)[C@H]1O[C@H]1O[C@H](CO)[C@@H](O)[C@H](N)[C@H]1O` [AMIKACIN] displayed an EC50 of 0.12 µM, an EC90 of 0.14 µM and an MIC of 0.16 µM (≈ 0.0937 µg/mL). This molecule showed a concentration for half-maximal inhibition (IC50) in test [2] of more than 62.5 µg/mL. In addition, in test [3], the EC50 came to 0.07 µM, the concentration for an effect of 90% (EC90) worked out at 0.12 µM and the MIC worked out at 0.16 µM (≈ 0.0937 µg/mL).
In test [1], `N[C@@H]1CONC1=O` [CYCLOSERINE] yielded an EC50 of 24.8 µM, a concentration for an effect of 90% (EC90) of 28 µM and an MIC of 100 µM (≈ 10.2 µg/mL). The IC50 in [2] is more than 62.5 µg/mL. In test [3], this molecule returned an EC50 of 23.6 µM, an EC90 of 26.4 µM and an MIC of 100 µM (≈ 10.2 µg/mL).
For the molecule `CC[C@@H](CO)NCCN[C@@H](CC)CO` [ETHAMBUTOL], in test [1], the EC50 came out at 3.45 µM and the EC90 is more than 200 µM. The same molecule gave an IC50 in test [2] of more than 62.5 µg/mL. For the same molecule, in [3], a half-maximal response (EC50) required 1.5 µM, the EC90 turned out to be 1.64 µM and inhibition of growth (MIC) required 6.25 µM (≈ 1.28 µg/mL).
In [1], `NNC(=O)c1ccncc1` [ISONIAZID] yielded an EC50 of 0.19 µM and a concentration for an effect of 90% (EC90) of more than 5 µM. This molecule also yielded an IC50 in test [2] of more than 62.5 µg/mL. In [3], this molecule came in with an EC50 of 0.13 µM, an EC90 of 0.2 µM and an MIC of 0.31 µM (≈ 0.0425 µg/mL).
`CCc1nc(N)nc(N)c1-c1ccc(Cl)cc1` [PYRIMETHAMINE]: in test [1], the EC50 was determined as 25.1 µM, the 90% effect level (EC90) was put at 28 µM and the MIC is 100 µM (≈ 24.9 µg/mL). Further, the 50% inhibitory concentration (IC50) in [2] is more than 62.5 µg/mL. In test [3], this molecule gave an EC50 of 24.3 µM, an EC90 of 46.4 µM and a minimal inhibitory concentration (MIC) of 100 µM (≈ 24.9 µg/mL).
On to `CO[C@H]1/C=C/O[C@@]2(C)Oc3c(C)c(O)c4c(O)c(c(/C=N/N5CCN(C)CC5)c(O)c4c3C2=O)NC(=O)/C(C)=C\C=C\[C@H](C)[C@H](O)[C@@H](C)[C@@H](O)[C@@H](C)[C@H](OC(C)=O)[C@@H]1C` [RIFAMPIN], for which, in test [1], the EC50 is 0.02 µM, the EC90 is 0.02 µM and the minimum inhibitory concentration (MIC) was 0.16 µM (≈ 0.132 µg/mL). Also, the IC50 in test [2] was more than 62.5 µg/mL. In [3], this molecule had an EC50 of 0.02 µM, an EC90 of 0.03 µM and an MIC of 0.04 µM (≈ 0.0329 µg/mL).
